This note sets out measurements from patent US20260364184A1, “COMPOUND BASED ON OXOISOINDOLINYL-SUBSTITUTED TETRAHYDROPYRIMIDINE-DIONE AND USE THEREOF” (GLUETACS THERAPEUTICS (SHANGHAI) CO., LTD., priority 2023, published 2026).

Structures are written as SMILES.

In experiment [1] the target is T1, BCL-2 (Homo sapiens, UniProt P10415).
T1 construct: expression of target proteins in cells; endogenous in cells
The experiment is described as follows: Western blot degradation of BCL-2. Type of experiment: cell-based. The settings on record: Molt-4 Cell; 24 hours. As for the experimental part: Conventional Western blot assay was performed to evaluate the effects of the compounds of the present disclosure on the expression of target proteins in cells.
(1) Cell Seeding and Protein Harvesting: The selected cells were processed according to the cell seeding procedure and protein harvesting procedure in Table II-2.
(2) To the collected supernatant, 5×SDS sample loading buffer was added, followed by denaturation at 95 °C for 5 minutes. The denatured samples were then separated by SDS-PAGE electrophoresis on a polyacrylamide gel. Proteins were transferred to a nitrocellulose membrane (0.45 μm NC membrane), blocked with blocking buffer at room temperature for 1 hour, and subjected to antibody incubation and development procedures according to the antibody manufacturer's instructions (Cell Signaling Technology).
Half-Maximal Degradation Concentration value (the drug concentration required for degrading proteins by 50%, abbreviated as DC50) reads method: comparing the grayscale values of Western blot bands from drug-treated samples with those from blank DMSO-treated controls, and identifying the drug concentration range at which the grayscale value is half that of the DMSO-treated control bands.
DC50 values can be calculated using ImageJ software to measure grayscale values of Western blot bands from drug-treated samples. The concentration-response curve is fitted to estimate the drug concentration corresponding to half the grayscale value.
Target protein remaining (%) refers to the percentage of target protein remaining in cells after treatment with protein degrader compounds.
Calculation method for target protein remaining (%): Use ImageJ software to measure grayscale values of Western blot bands from drug (protein degrader)-treated samples. The grayscale value of drug-treated bands is divided by that of internal control protein bands, and the resulting quotient is normalized to obtain the relative percentage of remaining target protein after protein degrader treatment.
Target protein degradation rate (%)=1−target protein remaining (%).
Background: Immunoblotting shows a protein as a band on a membrane.

Experiment [2] has as its system Human acute lymphocytic leukemia T lymphocytes cell line (CCRF-CEM). As to the kind of experiment: Inhibition of CCRF-CEM cell proliferation (CellTiter luminescent viability). Type of experiment: cell-based. The settings on record: Homo sapiens, 96 h, Table IH2, BCL-2 inhibitor-based; for inhibition at 0.01 µM: 10 nM, read-out: Inhibition Rate at 10 nM (%); for inhibition at 0.5 µM: 500 nM, read-out: Inhibition Rate at 500 nM (%).

For experiment [3], the system named is Human Acute T Lymphoblastic Leukemia Cells (Molt-4). As to the kind of experiment: Inhibition of Molt-4 cell proliferation (CellTiter luminescent viability). The settings on record: Homo sapiens, MOLT-4, 96 h, Table IH3, BCL-2 inhibitor-based, 96 hours; for inhibition at 0.01 µM: Molt-4, 10 nM, read-out: Inhibition Rate at 10 nM (%); for inhibition at 0.5 µM: Molt-4, 500 nM, read-out: Inhibition Rate at 500 nM (%). Type of experiment: cell-based.

Experiment [4] relates to Human prostate cancer cell line (NCI-H358). The experiment is described as follows: Inhibition of NCI-H358 cell proliferation (CellTiter luminescent viability). The settings on record: Table IH1, BCL-2 inhibitor-based, 96 hours; for inhibition at 0.01 µM: NCI-H358, 10 nM, read-out: Inhibition Rate at 10 nM (%); for inhibition at 0.5 µM: NCI-H358, 500 nM, read-out: Inhibition Rate at 500 nM (%). As for the experimental part: The tumor cells used herein were cultured in a cell culture medium listed in table 3 at 37 °C in an incubator with 5% CO2. Prior to experimentation, all cell lines used were correctly identified by STR profiling, and tested negative for mycoplasma contamination using a mycoplasma detection kit through routine screenings.
The IC50 values of the compounds of the present disclosure (including the compounds in Table 1, Table 2, and Examples 1-468) were determined using the CellTiter-Meiluncell Luminescent Cell Viability Assay Kit from Dalian Meilun Biotech Co., Ltd. The detailed procedure is as follows: Tumor cells were seeded in 96-well cell culture plates at the densities specified in Table 4. On the following day, the test compounds of the present disclosure were subjected to serial dilution. The dilution can be performed according to one of the following two methods: • (1) The first dilution method: The test compounds of the present disclosure (including the compounds in Table 1, Table 2, and Examples 1-468) were subjected to 5-fold serial dilutions starting from a highest concentration of 2000 μM, resulting in a total of 9 concentrations from high to low (2000, 400, 80, 16, 3.2, 0.64, 0.128, 0.0256, 0.00512 μM). Subsequently, 0.5 μL of the test compound dilution was transferred into the 96-well plate containing the cells, with each well containing 100 μL of cell culture medium. […] Into the 96-well plate, the diluted test compounds and corresponding detection reagents were added, resulting in final test compound concentrations of 500 nM and 10 nM, respectively. The experimental procedure is described below using the diluted 2 μM test compound as an example.
0.5 μL of the aforementioned diluted compound of the present disclosure (including the compounds in Table 1, Table 2, and Examples 1-468) was added to the seeded cells in 100 μL of medium, yielding a final test compound concentration of 10 nM. After the cells were treated with the compounds of the present disclosure for a specified period, the cell viability assay reagent was added to the culture medium according to the kit's instructions to determine cell viability. […] All controls were treated using the same procedure as the compounds of the present disclosure. The growth inhibition curves for the compounds of the present disclosure were plotted using Prism GraphPad software, and the IC50 values were calculated therefrom.

T1 sequence (P10415 whole entry): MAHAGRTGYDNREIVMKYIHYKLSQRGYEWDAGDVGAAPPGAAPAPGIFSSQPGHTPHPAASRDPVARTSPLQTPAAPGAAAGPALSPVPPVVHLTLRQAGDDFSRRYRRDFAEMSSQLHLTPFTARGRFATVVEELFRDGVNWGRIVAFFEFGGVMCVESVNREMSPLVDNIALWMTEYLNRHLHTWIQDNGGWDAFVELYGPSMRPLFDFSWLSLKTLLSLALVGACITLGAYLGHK

Consider `CC1(C)CCC(c2ccc(Cl)cc2)=C(CN2CCN(c3ccc(C(=O)NS(=O)(=O)c4ccc(N[C@H](CCN5CC6CCC5CN6Cc5ccc6c(c5)CN(N5CCC(=O)NC5=O)C6=O)CSc5ccccc5)c(S(=O)(=O)C(F)(F)F)c4)cc3)CC2)C1` (stereo partly drawn) [GT-07811, 4-(4-((4′-chloro-4,4-dimethyl-3,4,5,6-tetrahydro-[1,1′-biphenyl]-2-yl)methyl)piperazin-1-yl)-N-((4-(((2R)-4-(5-((2-(2,4-dioxotetrahydropyrimidin-1(2H)-yl)-1-oxoisoindolin-5-yl)methyl)-2,5-diazabicyclo[2.2.2]octan-2-yl)-1-(phenylthio)butan-2-yl)amino)-3-((trifluoromethyl)sulfonyl)phenyl)sulfonyl)benzamide], for which, in experiment [1], the “Degradation of substrate protein BCL-2 (substrate protein remaining %)” value (from here on “Degradation … (substrate protein remaining %)”) was “A (0%≤substrate protein remaining %≤80%)”. Further, the figures for the inhibition at 0.01 µM in experiment [2], in experiment [3] and in experiment [4] were 5 to 10%, 40 to 50% and 15 to 20%, respectively. Besides, the inhibition at 0.5 µM fell in the range of 80 to 100% in experiment [2], 80 to 100% in experiment [3] and 40 to 50% in experiment [4].
With `CC1(C)CCC(c2ccc(Cl)cc2)=C(CN2CCN(c3ccc(C(=O)NS(=O)(=O)c4ccc(N[C@H](CCN5C[C@H]6C[C@@H]5CN6Cc5ccc6c(c5)CN(N5CCC(=O)NC5=O)C6=O)CSc5ccccc5)c(S(=O)(=O)C(F)(F)F)c4)cc3)CC2)C1` [GT-07812, 4-(4-((4′-chloro-4,4-dimethyl-3,4,5,6-tetrahydro-[1,1′-biphenyl]-2-yl)methyl)piperazin-1-yl)-N-((4-(((R)-4-((1R,4R)-5-((2-(2,4-dioxotetrahydropyrimidin-1(2H)-yl)-1-oxoisoindolin-5-yl)methyl)-2,5-diazabicyclo[2.2.1]heptan-2-yl)-1-(phenylthio)butan-2-yl)amino)-3-((trifluoromethyl)sulfonyl)phenyl)sulfonyl)benzamide], the “Degradation … (substrate protein remaining %)” value in experiment [1] is on record as “A (0%≤substrate protein remaining %≤80%)”. Moreover, the results for the inhibition at 0.01 µM in experiment [2], in experiment [3] and in experiment [4] were 20 to 30%, 50 to 60% and 30 to 40%, respectively. Moreover, the values for the inhibition at 0.5 µM in experiment [2], in experiment [3] and in experiment [4] were 80 to 100%, 80 to 100% and 50 to 60%, respectively.
As to `CC1(C)CCC(c2ccc(Cl)cc2)=C(CN2CCN(c3ccc(C(=O)NS(=O)(=O)c4ccc(N[C@H](CCN5C6CCC5CN(Cc5ccc7c(c5)CN(N5CCC(=O)NC5=O)C7=O)C6)CSc5ccccc5)c(S(=O)(=O)C(F)(F)F)c4)cc3)CC2)C1` [GT-07814, 4-(4-((4′-chloro-4,4-dimethyl-3,4,5,6-tetrahydro-[1,1′-biphenyl]-2-yl)methyl)piperazin-1-yl)-N-((4-(((2R)-4-(3-((2-(2,4-dioxotetrahydropyrimidin-1(2H)-yl)-1-oxoisoindolin-5-yl)methyl)-3,8-diazabicyclo[3.2.1]octan-8-yl)-1-(phenylthio)butan-2-yl)amino)-3-((trifluoromethyl)sulfonyl)phenyl)sulfonyl)benzamide], the “Degradation … (substrate protein remaining %)” value in experiment [1] is reported as “A (0%≤substrate protein remaining %≤80%)”. Also, the inhibition at 0.01 µM in experiment [2] was 50 to 60%; in experiment [3], 80 to 100%; in experiment [4], 15 to 20%. The inhibition at 0.5 µM is 80 to 100% in experiment [2], 80 to 100% in experiment [3] and 40 to 50% in experiment [4].
`CC1(C)CCC(c2ccc(Cl)cc2)=C(CN2CCN(c3ccc(C(=O)NS(=O)(=O)c4ccc(N[C@H](CCN5CC6CCC5CN6Cc5ccc6c(c5)C(=O)N(N5CCC(=O)NC5=O)C6=O)CSc5ccccc5)c(S(=O)(=O)C(F)(F)F)c4)cc3)CC2)C1` (stereo partly drawn) [GT-07815, 4-(4-((4′-chloro-4,4-dimethyl-3,4,5,6-tetrahydro-[1,1′-biphenyl]-2-yl)methyl)piperazin-1-yl)-N-((4-(((2R)-4-(5-((2-(2,4-dioxotetrahydropyrimidin-1(2H)-yl)-1,3-dioxoisoindolin-5-yl)methyl)-2,5-diazabicyclo[2.2.2]octan-2-yl)-1-(phenylthio)butan-2-yl)amino)-3-((trifluoromethyl)sulfonyl)phenyl)sulfonyl)benzamide]: the “Degradation … (substrate protein remaining %)” value in experiment [1] is “A (0%≤substrate protein remaining %≤80%)”. Further, the inhibition at 0.01 µM in experiment [2] was -5 to 0%; in experiment [3] it was 5 to 10%; in experiment [4], 15 to 20%. The figures for the inhibition at 0.5 µM in experiment [2], in experiment [3] and in experiment [4] were 50 to 60%, 80 to 100% and 30 to 40%, respectively.
In the case of `CC1(C)CCC(c2ccc(Cl)cc2)=C(CN2CCN(c3ccc(C(=O)NS(=O)(=O)c4ccc(N[C@H](CCN5C[C@H]6C[C@@H]5CN6Cc5ccc6c(c5)C(=O)N(N5CCC(=O)NC5=O)C6=O)CSc5ccccc5)c(S(=O)(=O)C(F)(F)F)c4)cc3)CC2)C1` [GT-07816, 4-(4-((4′-chloro-4,4-dimethyl-3,4,5,6-tetrahydro-[1,1′-biphenyl]-2-yl)methyl)piperazin-1-yl)-N-((4-(((R)-4-((1R,4R)-5-((2-(2,4-dioxotetrahydropyrimidin-1(2H)-yl)-1,3-dioxoisoindolin-5-yl)methyl)-2,5-diazabicyclo[2.2.1]heptan-2-yl)-1-(phenylthio)butan-2-yl)amino)-3-((trifluoromethyl)sulfonyl)phenyl)sulfonyl)benzamide], in experiment [1], the “Degradation … (substrate protein remaining %)” value is listed as “A (0%≤substrate protein remaining %≤80%)”. Further, in experiment [2], the inhibition at 0.01 µM lay within 5 to 10% and the inhibition at 0.5 µM lay within 40 to 50%. In addition, in experiment [3], the inhibition at 0.01 µM fell in the range of 10 to 15% and the inhibition at 0.5 µM fell in the range of 60 to 70%.

A word on the inhibition: it is the drop in the measured response relative to a control, in per cent.
